Measurements published in patent US12631645B2, “Detection of BCL-2 family heterodimer complexes and use thereof” (The U.S.A., as represented by the Secretary, Department of …, priority 2019, dated 2026).

Tests used:
[1] = test system: BAK-BAX oligomerization; test: Heterodimer complexes in AMO-1 xenograft tumor lysates after treatment, BAK-BAX; assay type: in vivo, mice; conditions: 16 hours after treatment, 100 mg/kg orally (FIG. 7A)
Protocol: The immunoassays described herein were built on the Luminex xMAP multiplex technology platform using magnetic bead capture. Washes were performed with a 96-well magnetic plate washer (ELx405), BioTek). During incubation, the plates were placed on an orbital titer plate shaker (VWR International). Liquid handling was performed manually with calibrated, adjustable, precision multichannel pipettes (Rainin 8-Channel). All assays were performed in 96-well plates (BioPlex, BioRad) at 25° C.±3° C. by adding 10 μL of blocking solution (Myriad RBM) and 30 μL of calibrator, control, or unknown sample. Antibody-coupled beads were sonicated for 5 seconds and then vortexed at medium speed for 10 to 20 seconds to disperse the beads, and 10 μL beads (250 beads/analyte/μL) were added to each well per analyte. Plates were protected from light (Black Microplate Lid, VWR) and incubated for 1 hour at 25° C.±3° C. with shaking. […] After a final wash, 100 μL of assay buffer was added to each well and plates were read on a Luminex 200 reader.
Heterodimer complexes were measured in AMO-1 and MV11 xenograft tumor lysates using the immunoassay described in Examples 3 and 4. […] The level of cleaved caspase-3 was also measured. […] Heterodimer composition was also measured in blood or bone marrow samples of 11 patients with CLL.

[2] = test system: AMO-1 xenograft tumors; test: Response of multiple myeloma model AMO-1 to BH3 mimetic treatment; assay type: in vivo, mice; conditions: 100 mg/kg orally, 16 hours (FIG. 7A)
[3] = test system: MV411 xenograft tumors; test: Response of AML model MV411 to BH3 mimetic treatment; assay type: in vivo, mice; conditions: MV411 xenograft tumor lysates, 24 hours after treatment; NSC798846 25 mg/kg intravenously, NSC766270 100 mg/kg orally (FIG. 7B)
[4] = test system: BAX-BAK heterodimer; test: Heterodimer immunoassay, BAX-BAK in lysates of treated cancer cell lines; assay type: cell-based, human; design: BAX-BAK heterodimers: dose or concentration left out as unconfirmed; conditions: for BAX-BAK levels: HCT116 and MOLT-4 cancer cell lines (FIG. 4C)
Protocol: (§1) The immunoassays described herein were built on the Luminex xMAP multiplex technology platform using magnetic bead capture. Washes were performed with a 96-well magnetic plate washer (ELx405), BioTek). During incubation, the plates were placed on an orbital titer plate shaker (VWR International). Liquid handling was performed manually with calibrated, adjustable, precision multichannel pipettes (Rainin 8-Channel). All assays were performed in 96-well plates (BioPlex, BioRad) at 25° C.±3° C. by adding 10 μL of blocking solution (Myriad RBM) and 30 μL of calibrator, control, or unknown sample. Antibody-coupled beads were sonicated for 5 seconds and then vortexed at medium speed for 10 to 20 seconds to disperse the beads, and 10 μL beads (250 beads/analyte/μL) were added to each well per analyte. Plates were protected from light (Black Microplate Lid, VWR) and incubated for 1 hour at 25° C.±3° C. with shaking. Plates were washed with wash solution (Myriad RBM), and then 40 μL of detection antibody-biotin conjugate was added and plates were incubated for an additional hour with shaking. After incubation with the antibody-biotin conjugate, 40 μL of R-phycoerythrin-labeled streptavidin (Invitrogen) was added, and plates were incubated for 30 minutes with shaking. After a final wash, 100 μL of assay buffer was added to each well and plates were read on a Luminex 200 reader.
(§2) Further studies were conducted to evaluate the effect of BH3 mimetics on Bcl-2 family heterodimer levels and induction of apoptosis.
(§3) Similar studies were performed in AMO-1 plasmacytoma cells and Mv4-11 acute myeloid leukemia cells. […] The level of cleaved caspase-3 was also determined.

[5] = test system: cleaved caspase-3; test: Cleaved caspase-3 level in treated cancer cell lines; assay type: cell-based, human; design: dose or concentration left out as unconfirmed
Protocol: as §2, §3

[6] = target: T1, Bcl-2-BIM complexes (Homo sapiens, UniProt P10415); test: Heterodimer complexes in AMO-1 xenograft tumor lysates after treatment, Bcl-2-BIM; assay type: in vivo, mice; conditions: 16 hours after treatment, NSC798846 25 mg/kg intravenously, NSC766270 100 mg/kg orally (FIG. 7A)
T1 construct: from tissue; host or cells: AMO-1 xenograft tumors grown in mice
Protocol: as §1

[7] = test system: BIM; conditions: AMO-1 xenograft tumor lysates, 16 hours after 25 mg/kg intravenously (FIG. 7A)
Protocol: The effect of two different BH3 mimetics on heterodimer composition in the AMO-1 and MV411 models was next evaluated. […] Heterodimer complexes were measured in tumor lysates prepared from AMO-1 mice 16 hours after treatment and from MV411 mice 24 hours after treatment.

[8] = test system: AMO-1 cell line; conditions: read-out: IC50 (sensitivity to S63845), Kotschy et al., Nature 2016; cited from earlier work
[9] = test system: AMO1 xenografts; conditions: intravenous injection; Kotschy et al.; cited from earlier work
[10] = test system: MV4-11 human AML xenograft model; conditions: in vivo; compared with AMO1 xenografts; Kotschy et al.; cited from earlier work
[11] = target: T2, BIM-Mcl-1 heterodimer (Homo sapiens, UniProt Q07820); test: Heterodimer immunoassay, BIM-Mcl-1 in lysates of treated cancer cell lines; assay type: cell-based; design: BIM-Mcl-1 heterodimers: dose or concentration left out as unconfirmed
T2 construct: Within cells, anti-apoptotic proteins exist primarily as complexed heterodimers with pro-apoptotic proteins; endogenous in cells; host or cells: AMO-1, MV4-11 (Mv411), HCT116, MOLT-4
Protocol: as §1, §2, §3

[12] = target: BIM-Bcl-xL heterodimer (Homo sapiens, UniProt Q07817); test: Heterodimer immunoassay, BIM-Bcl-xL in lysates of treated cancer cell lines; assay type: cell-based; design: BIM-Bcl-xL heterodimeric complexes: dose or concentration left out as unconfirmed
Protocol: as §1, with “After incubation with the antibody-biotin conjugate, 40 μL of R-phycoerythrin-labeled streptavidin (Invitrogen) was added, and plates were incubated for 30 minutes with shaking.” left out, “reader. […]” for “reader.”
as §3

[13] = Mv4-11 cells, treated with vs untreated (FIG. 5D, 5E)
[14] = AMO-1 cells, treated vs untreated (FIG. 5B, 5C)
[15] = HCT116 and MOLT-4 cancer cell lines (FIG. 4D)
[16] = Mv4-11 cells, treated vs untreated (FIG. 5D, 5E)

T2 sequence (Q07820 whole entry, one chain of several): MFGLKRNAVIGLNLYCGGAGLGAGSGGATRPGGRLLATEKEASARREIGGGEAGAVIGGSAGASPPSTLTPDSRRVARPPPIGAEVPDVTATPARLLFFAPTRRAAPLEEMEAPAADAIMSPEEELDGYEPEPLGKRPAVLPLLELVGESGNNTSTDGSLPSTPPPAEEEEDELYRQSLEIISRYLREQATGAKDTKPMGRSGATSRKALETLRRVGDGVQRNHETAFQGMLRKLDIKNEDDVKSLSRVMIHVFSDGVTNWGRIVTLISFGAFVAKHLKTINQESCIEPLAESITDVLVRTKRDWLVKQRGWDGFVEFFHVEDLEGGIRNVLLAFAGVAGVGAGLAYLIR
Sequence of BIM-Bcl-xL heterodimer (Q07817 whole entry, one chain of several): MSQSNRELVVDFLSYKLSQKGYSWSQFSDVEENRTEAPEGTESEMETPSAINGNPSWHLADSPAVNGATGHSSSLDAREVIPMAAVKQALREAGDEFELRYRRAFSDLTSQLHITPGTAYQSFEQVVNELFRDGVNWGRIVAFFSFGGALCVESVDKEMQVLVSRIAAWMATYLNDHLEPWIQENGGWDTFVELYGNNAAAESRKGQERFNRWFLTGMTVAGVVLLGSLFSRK
T1 sequence (P10415 whole entry, one chain of several): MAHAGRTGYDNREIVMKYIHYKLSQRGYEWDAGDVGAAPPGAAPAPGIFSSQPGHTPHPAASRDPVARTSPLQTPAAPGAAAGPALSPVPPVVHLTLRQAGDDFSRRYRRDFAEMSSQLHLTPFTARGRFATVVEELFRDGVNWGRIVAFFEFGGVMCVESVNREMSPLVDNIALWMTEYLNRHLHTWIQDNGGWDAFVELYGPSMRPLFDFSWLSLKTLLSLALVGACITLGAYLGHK

Row | Compound | BAK-BAX oligomerization (mitochondrial poration marker), subsequent caspase-3 activation and cell death [1] | effectiveness of treatment in multiple myeloma model AMO-1 [2] | disrupting the balance of BIM complexes and initiating caspase-3 activation and cell death [3] | BAX-BAK heterodimers ([4]; AMO-1 cells, treated with vs untreated (FIG. 5B)) | BAX-BAK levels [4] | BAX-BAK heterodimers [4, 13] | cleaved caspase-3 [5, 14] | cleaved caspase-3 [5, 15] | cleaved caspase-3 [5, 16] | Bcl-2-BIM complexes [6] | BIM (overall) [7] | IC50 [8] | anti-tumor activity in AMO1 xenografts [9] | activity in MV4-11 human AML xenograft model [10] | BIM-Mcl-1 levels ([11]; AMO-1 and Mv411 cell lines, in vitro (FIG. 3A)) | BIM-Mcl-1 levels ([11]; HCT116 and MOLT-4 cancer cell lines (FIG. 4B)) | BIM-Mcl-1 heterodimers [11, 13] | BIM-Bcl-xL levels ([12]; HCT116 and MOLT-4 cancer cell lines (FIG. 4A)) | BIM-Bcl-xL heterodimeric complexes ([12]; Mv4-11 cells, treated vs untreated (FIG. 5E))
1 | CC1(C)CCC(CN2CCN(c3ccc(C(=O)NS(=O)(=O)c4ccc(NCC5CCOCC5)c([N+](=O)[O-])c4)c(Oc4cnc5[nH]ccc5c4)c3)CC2)=C(c2ccc(Cl)cc2)C1 [NSC766270] | did not initiate | ineffective | equally effective | – | – | – | – | – | – | – | – | – | – | – | – | – | – | – | –
2 | Cc1c(-c2c(-c3ccc(F)o3)sc3ncnc(O[C@H](Cc4ccccc4OCc4ccnn4CC(F)(F)F)C(=O)O)c23)ccc(OCCN2CCN(C)CC2)c1Cl [S63845] | – | – | equally effective | increase | increased | significant increase | increase | increased activation | significant increase | disruption | overall degradation | < 100 nM | dose-dependent anti-tumor activity | less potent activity | – | – | – | – | –
3 | CC1(C)CCC(c2ccc(Cl)cc2)=C(CN2CCN(c3ccc(C(=O)NS(=O)(=O)c4ccc(N[C@H](CCN5CCOCC5)CSc5ccccc5)c(S(=O)(=O)C(F)(F)F)c4)cc3)CC2)C1 [novitoclax] | – | – | – | – | increased | increase | did not lead to a significant increase | increased activation | increase | – | – | – | – | – | largely unaffected | increased | increase | disrupted | decrease
